Results: patent US12589143B2, “Human anti-PD-L1 peptide vaccines and methods of their use” (priority 2019, dated 2026)
Several values for one entry are separate records, joined by “and”; a condition that tells them apart may be missing. Equal entries are not always repeated. Where no end group is shown, it is not given here.

Tested on: MVF-PD-L1 peptide immunogen
Experiment: Immunogenicity in Balb/c mice, experiment 1 (CT26 WT): ELISA of sera vs each MVF-PD-L1 peptide immunogen
Format: in vivo
Settings: for Immunogenicity (titers) 1′ Conc. 1:: Balb/c mice
How it was run: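 Female Balb/c mice aged 6–8 weeks received 100 μg of each MVF-PD-L1 peptide in Montanide ISA 720 with nor-MDP three times at 3-week intervals. Weekly sera were titered by ELISA against each immunogen on 200 ng/well peptide. Titer was the highest dilution giving absorbance 0.2 after blank subtraction.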

## KLLSLIKGVIVHRLEGVEGPSLYRCMISYGGADYKRITVK (KLLSLIKGVIVHRLEGVEGPSLYRCMISYGGADYKRITVK-NH2) [PD-L1(95)]
Bleed 1Y + 3
  Immunogenicity (titers) 1′ Conc. 1:: 0
Bleed 2Y + 1
  Immunogenicity (titers) 1′ Conc. 1:: 12800
Bleed 2Y + 2
  Immunogenicity (titers) 1′ Conc. 1:: 32000
Bleed 2Y + 3
  Immunogenicity (titers) 1′ Conc. 1:: 32000
Bleed 3Y + 1
  Immunogenicity (titers) 1′ Conc. 1:: 32000
Bleed 3Y + 2
  Immunogenicity (titers) 1′ Conc. 1:: 64000
Bleed 3Y + 3
  Immunogenicity (titers) 1′ Conc. 1:: 32000
Bleed 1Y + 3 (1to100), dilution 100
  ELISA absorbance of sera: 0.165 and 0.150
Bleed 1Y + 3 (1to100), dilution 200
  ELISA absorbance of sera: 0.088 and 0.078
Bleed 1Y + 3 (1to100), dilution 400
  ELISA absorbance of sera: 0.040 and 0.036
Bleed 1Y + 3 (1to100), dilution 800
  ELISA absorbance of sera: 0.020 and 0.021
Bleed 1Y + 3 (1to100), dilution 1,600
  ELISA absorbance of sera: 0.008 and 0.007
Bleed 1Y + 3 (1to100), dilution 3,200
  ELISA absorbance of sera: 0.006
Bleed 1Y + 3 (1to100), dilution 6,400
  ELISA absorbance of sera: 0.002 and 0.001
Bleed 2Y + 1 (1to100), dilution 100
  ELISA absorbance of sera: 1.499 and 1.508
Bleed 2Y + 1 (1to100), dilution 200
  ELISA absorbance of sera: 1.399 and 1.429
Bleed 2Y + 1 (1to100), dilution 400
  ELISA absorbance of sera: 1.232 and 1.283
Bleed 2Y + 1 (1to100), dilution 800
  ELISA absorbance of sera: 0.988 and 1.067
Bleed 2Y + 1 (1to100), dilution 1,600
  ELISA absorbance of sera: 0.768 and 0.793
Bleed 2Y + 1 (1to100), dilution 3,200
  ELISA absorbance of sera: 0.508 and 0.560
Bleed 2Y + 1 (1to100), dilution 6,400
  ELISA absorbance of sera: 0.303 and 0.339
Bleed 2Y + 1 (1to100), dilution 12,800
  ELISA absorbance of sera: 0.235 and 0.201
Bleed 2Y + 2 (1to1k), dilution row 100 (Table 5C), dilution 100
  ELISA absorbance of sera: 1.553 and 1.522
Bleed 2Y + 2 (1to1k), dilution row 200 (Table 5C), dilution 200
  ELISA absorbance of sera: 1.327 and 1.281
Bleed 2Y + 2 (1to1k), dilution row 400 (Table 5C), dilution 400
  ELISA absorbance of sera: 1.035 and 0.982
Bleed 2Y + 2 (1to1k), dilution row 800 (Table 5C), dilution 800
  ELISA absorbance of sera: 0.777 and 0.736
Bleed 2Y + 2 (1to1k), dilution row 1,600 (Table 5C)
  ELISA absorbance of sera: 0.502 and 0.525
Bleed 2Y + 2 (1to1k), dilution row 3,200 (Table 5C)
  ELISA absorbance of sera: 0.294 and 0.299
Bleed 2Y + 2 (1to1k), dilution row 6,400 (Table 5C)
  ELISA absorbance of sera: 0.171 and 0.156
Bleed 2Y + 2 (1to1k), dilution row 12,800 (Table 5C)
  ELISA absorbance of sera: 0.085
Bleed 2Y + 3 (1to1k), dilution 100
  ELISA absorbance of sera: 1.256 and 1.224
Bleed 2Y + 3 (1to1k), dilution 200
  ELISA absorbance of sera: 1.126 and 1.121
Bleed 2Y + 3 (1to1k), dilution 400
  ELISA absorbance of sera: 0.933 and 0.900
Bleed 2Y + 3 (1to1k), dilution 800
  ELISA absorbance of sera: 0.714 and 0.699
Bleed 2Y + 3 (1to1k), dilution 1,600
  ELISA absorbance of sera: 0.500 and 0.484
Bleed 2Y + 3 (1to1k), dilution 3,200
  ELISA absorbance of sera: 0.318 and 0.296
Bleed 2Y + 3 (1to1k), dilution 6,400
  ELISA absorbance of sera: 0.150 and 0.154
Bleed 3Y + 1 (1to1k), dilution 100
  ELISA absorbance of sera: 1.597 and 1.466
Bleed 3Y + 1 (1to1k), dilution 200
  ELISA absorbance of sera: 1.387 and 1.308
Bleed 3Y + 1 (1to1k), dilution 400
  ELISA absorbance of sera: 1.090 and 0.994
Bleed 3Y + 1 (1to1k), dilution 800
  ELISA absorbance of sera: 0.859 and 0.753
Bleed 3Y + 1 (1to1k), dilution 1,600
  ELISA absorbance of sera: 0.527 and 0.511
Bleed 3Y + 1 (1to1k), dilution 3,200
  ELISA absorbance of sera: 0.275 and 0.263
Bleed 3Y + 1 (1to1k), dilution 6,400
  ELISA absorbance of sera: 0.154 and 0.081
Bleed 3Y + 2 (1to1k), dilution 100
  ELISA absorbance of sera: 2.076 and 1.906
Bleed 3Y + 2 (1to1k), dilution 200
  ELISA absorbance of sera: 1.803 and 1.701
Bleed 3Y + 2 (1to1k), dilution 400
  ELISA absorbance of sera: 1.417 and 1.293
Bleed 3Y + 2 (1to1k), dilution 800
  ELISA absorbance of sera: 1.116 and 0.979
Bleed 3Y + 2 (1to1k), dilution 1,600
  ELISA absorbance of sera: 0.685 and 0.664
Bleed 3Y + 2 (1to1k), dilution 3,200
  ELISA absorbance of sera: 0.357 and 0.342
Bleed 3Y + 2 (1to1k), dilution 6,400
  ELISA absorbance of sera: 0.201 and 0.205
Bleed 3Y + 3 (1to1k), dilution 100
  ELISA absorbance of sera: 1.811 and 1.973
Bleed 3Y + 3 (1to1k), dilution 200
  ELISA absorbance of sera: 1.616 and 1.713
Bleed 3Y + 3 (1to1k), dilution 400
  ELISA absorbance of sera: 1.228 and 1.346
Bleed 3Y + 3 (1to1k), dilution 800
  ELISA absorbance of sera: 0.930 and 1.061
Bleed 3Y + 3 (1to1k), dilution 1,600
  ELISA absorbance of sera: 0.631 and 0.651
Bleed 3Y + 3 (1to1k), dilution 3,200
  ELISA absorbance of sera: 0.230 and 0.244
Bleed 3Y + 3 (1to1k), dilution 6,400
  ELISA absorbance of sera: 0.081 and 0.096
